# Test results from US20120220562A1, “Anti-Viral Compounds” (ABBOTT LABAORATORIES, priority 2011, published 2012).
# System: HCV 1b-Con1 replicon
# Assay: HCV 1b-Con1 replicon assay in the presence of 5% FBS
# Format: cell-based
# Conditions: Hepatitis C virus
row,SMILES,EC50 [pM]
1,"COC(=O)N[C@H](C(=O)N1CCC[C@H]1c1nc2ccc([C@H]3CC[C@H](c4ccc5nc([C@@H]6CCCN6C(=O)[C@@H](NC(=O)OC)C(C)C)[nH]c5c4)N3c3cc(F)c(N4CCC(c5ccccn5)CC4)c(F)c3)cc2[nH]1)C(C)C [Example 2.13, methyl {(2S)-1-[(2S)-2-{5-[(2R,5R)-1-{3,5-difluoro-4-[4-(pyridin-2-yl)piperidin-1-yl]phenyl}-5-{2-[(2S)-1-{(2S)-2-[(methoxycarbonyl)amino]-3-methylbutanoyl}pyrrolidin-2-yl]-1H-benzimidazol-5-yl}pyrrolidin-2-yl]-1H-benzimidazol-2-yl}pyrrolidin-1-yl]-3-methyl-1-oxobutan-2-yl}carbamate]",< 100
2,"COC(=O)N[C@H](C(=O)N1CCC[C@H]1c1nc2ccc([C@H]3CC[C@H](c4ccc5nc([C@@H]6CCCN6C(=O)[C@@H](NC(=O)OC)C(C)C)[nH]c5c4)N3c3cc(F)c(N4CCC(c5ccc([Si](C)(C)C)cc5)CC4)c(F)c3)cc2[nH]1)C(C)C [Example 2.14, methyl {(2S)-1-[(2S)-2-{5-[(2R,5R)-1-(3,5-difluoro-4-{4-[4-(trimethylsilyl)phenyl]piperidin-1-yl}phenyl)-5-{2-[(2S)-1-{(2S)-2-[(methoxycarbonyl)amino]-3-methylbutanoyl}pyrrolidin-2-yl]-1H-benzimidazol-5-yl}pyrrolidin-2-yl]-1H-benzimidazol-2-yl}pyrrolidin-1-yl]-3-methyl-1-oxobutan-2-yl}carbamate]",< 100
3,"COC(=O)N[C@H](C(=O)N1CCC[C@H]1c1nc2ccc([C@H]3CC[C@H](c4ccc5nc([C@@H]6CCCN6C(=O)[C@@H](NC(=O)OC)C(C)C)[nH]c5c4)N3c3cc(F)c(N4CCC(c5cccc6ccccc56)CC4)c(F)c3)cc2[nH]1)C(C)C [Example 2.15, methyl {(2S)-1-[(2S)-2-{5-[(2R,5R)-1-{3,5-difluoro-4-[4-(1-naphthyl)piperidin-1-yl]phenyl}-5-{2-[(2S)-1-{(2S)-2-[(methoxycarbonyl)amino]-3-methylbutanoyl}pyrrolidin-2-yl]-1H-benzimidazol-5-yl}pyrrolidin-2-yl]-1H-benzimidazol-2-yl}pyrrolidin-1-yl]-3-methyl-1-oxobutan-2-yl}carbamate]",< 100
4,"COC(=O)N[C@H](C(=O)N1CCC[C@H]1c1nc2cc(F)c([C@H]3CC[C@H](c4cc5[nH]c([C@@H]6CCCN6C(=O)[C@@H](NC(=O)OC)C(C)C)nc5cc4F)N3c3cc(F)c(N4CC(C)CC(C)C4)c(F)c3)cc2[nH]1)C(C)C (stereo partly drawn) [Example 2.16, methyl {(2S)-1-[(2S)-2-{5-[(5R)-1-[4-(3,5-dimethylpiperidin-1-yl)-3,5-difluorophenyl]-5-{6-fluoro-2-[(2S)-1-{(2S)-2-[(methoxycarbonyl)amino]-3-methylbutanoyl}pyrrolidin-2-yl]-1H-benzimidazol-5-yl}pyrrolidin-2-yl]-6-fluoro-1H-benzimidazol-2-yl}pyrrolidin-1-yl]-3-methyl-1-oxobutan-2-yl}carbamate]",< 100
5,"COC(=O)N[C@H](C(=O)N1CCC[C@H]1c1nc2cc([C@H]3CC[C@H](c4ccc5[nH]c([C@@H]6CCCN6C(=O)[C@@H](NC(=O)OC)C(C)C)nc5c4)N3c3cc(F)c(N4CCN(c5ccc(C(F)(F)F)cc5)CC4)c(F)c3)ccc2[nH]1)C(C)C [Example 2.17, methyl {(2S)-1-[(2S)-2-{5-[(2R,5R)-1-(3,5-difluoro-4-{4-[4-(trifluoromethyl)phenyl]piperazin-1-yl}phenyl)-5-{2-[(2S)-1-(2S)-2-[(methoxycarbonyl)amino]-3-methylbutanoylpyrrolidin-2-yl]-1H-benzimidazol-5-yl}pyrrolidin-2-yl]-1H-benzimidazol-2-yl}pyrrolidin-1-yl]-3-methyl-1-oxobutan-2-yl}carbamate]",< 100
6,"COC(=O)N[C@H](C(=O)N1CCC[C@H]1c1nc2cc([C@H]3CC[C@H](c4ccc5[nH]c([C@@H]6CCCN6C(=O)[C@@H](NC(=O)OC)C(C)C)nc5c4)N3c3ccc(-c4ccccn4)cc3)ccc2[nH]1)C(C)C [Example 3.1, methyl {(2S)-1-[(2S)-2-(5-{(2R,5R)-5-{2-[(2S)-1-{(2S)-2-[(methoxycarbonyl)amino]-3-methylbutanoyl}pyrrolidin-2-yl]-1H-benzimidazol-5-yl}-1-[4-(pyridin-2-yl)phenyl]pyrrolidin-2-yl}-1H-benzimidazol-2-yl)pyrrolidin-1-yl]-3-methyl-1-oxobutan-2-yl}carbamate]",< 100
7,"COC(=O)N[C@H](C(=O)N1CCC[C@H]1c1nc2cc([C@H]3CC[C@H](c4ccc5[nH]c([C@@H]6CCCN6C(=O)[C@@H](NC(=O)OC)C(C)C)nc5c4)N3c3ccc(OC(F)(F)F)c(Cl)c3)ccc2[nH]1)C(C)C [Example 3.2, methyl {(2S)-1-[(2S)-2-{5-[(2R,5R)-1-[3-chloro-4-(trifluoromethoxy)phenyl]-5-{2-[(2S)-1-{(2S)-2-[(methoxycarbonyl)amino]-3-methylbutanoyl}pyrrolidin-2-yl]-1H-benzimidazol-5-yl}pyrrolidin-2-yl]-1H-benzimidazol-2-yl}pyrrolidin-1-yl]-3-methyl-1-oxobutan-2-yl}carbamate]",< 100
8,"COCCOc1ccc(N2[C@@H](c3ccc4[nH]c([C@@H]5CCCN5C(=O)[C@@H](NC(=O)OC)C(C)C)nc4c3)CC[C@@H]2c2ccc3[nH]c([C@@H]4CCCN4C(=O)[C@@H](NC(=O)OC)C(C)C)nc3c2)cc1 [Example 3.3, methyl {(2S)-1-[(2S)-2-(5-{(2R,5R)-5-{2-[(2S)-1-{(2S)-2-[(methoxycarbonyl)amino]-3-methylbutanoyl}pyrrolidin-2-yl]-1H-benzimidazol-5-yl}-1-[4-(2-methoxyethoxy)phenyl]pyrrolidin-2-yl}-1H-benzimidazol-2-yl)pyrrolidin-1-yl]-3-methyl-1-oxobutan-2-yl}carbamate]",100 to 1000
9,"COC(=O)N[C@H](C(=O)N1CCC[C@H]1c1nc2cc([C@H]3CC[C@H](c4ccc5[nH]c([C@@H]6CCCN6C(=O)[C@@H](NC(=O)OC)C(C)C)nc5c4)N3c3ccc(Cl)cc3)ccc2[nH]1)C(C)C [Example 3.4, methyl {(2S)-1-[(2S)-2-{5-[(2R,5R)-1-(4-chlorophenyl)-5-{2-[(2S)-1-{(2S)-2-[(methoxycarbonyl)amino]-3-methylbutanoyl}pyrrolidin-2-yl]-1H-benzimidazol-5-yl}pyrrolidin-2-yl]-1H-benzimidazol-2-yl}pyrrolidin-1-yl]-3-methyl-1-oxobutan-2-yl}carbamate]",< 100
10,"COC(=O)N[C@H](C(=O)N1CCC[C@H]1c1nc2cc([C@H]3CC[C@H](c4ccc5[nH]c([C@@H]6CCCN6C(=O)[C@@H](NC(=O)OC)C(C)C)nc5c4)N3c3ccc(-c4ccccc4)cc3)ccc2[nH]1)C(C)C [Example 3.5, methyl {(2S)-1-[(2S)-2-{5-[(2R,5R)-1-(biphenyl-4-yl)-5-{2-[(2S)-1-{(2S)-2-[(methoxycarbonyl)amino]-3-methylbutanoyl}pyrrolidin-2-yl]-1H-benzimidazol-5-yl}pyrrolidin-2-yl]-1H-benzimidazol-2-yl}pyrrolidin-1-yl]-3-methyl-1-oxobutan-2-yl}carbamate]",< 100
11,"COC(=O)N[C@H](C(=O)N1CCC[C@H]1c1nc2cc([C@H]3CC[C@H](c4ccc5[nH]c([C@@H]6CCCN6C(=O)[C@@H](NC(=O)OC)C6CCOCC6)nc5c4)N3c3ccc(C(C)(C)C)cc3)ccc2[nH]1)C1CCOCC1 [Example 3.6, dimethyl ([(2R,5R)-1-(4-tert-butylphenyl)pyrrolidine-2,5-diyl]bis{1H-benzimidazole-5,2-diyl(2S)pyrrolidine-2,1-diyl[(1S)-2-oxo-1-(tetrahydro-2H-pyran-4-yl)ethane-2,1-diyl]})biscarbamate]",< 100
12,"COC(=O)N[C@H](C(=O)N1C[C@@H](OC)C[C@H]1c1nc2cc([C@H]3CC[C@H](c4ccc5[nH]c([C@@H]6C[C@H](OC)CN6C(=O)[C@@H](NC(=O)OC)C(C)C)nc5c4)N3c3cc(F)c(N4CCCCC4)c(F)c3)ccc2[nH]1)C(C)C [Example 3.7, methyl {(2S)-1-[(2S,4S)-2-{5-[(2R,5R)-1-[3,5-difluoro-4-(piperidin-1-yl)phenyl]-5-{2-[(2S,4S)-4-methoxy-1-{(2S)-2-[(methoxycarbonyl)amino]-3-methylbutanoyl}pyrrolidin-2-yl]-1H-benzimidazol-5-yl}pyrrolidin-2-yl]-1H-benzimidazol-2-yl}-4-methoxypyrrolidin-1-yl]-3-methyl-1-oxobutan-2-yl}carbamate]",< 100
13,"COC(=O)N[C@H](C(=O)N1C[C@@H](F)C[C@H]1c1nc2cc([C@H]3CC[C@H](c4ccc5[nH]c([C@@H]6C[C@H](F)CN6C(=O)[C@@H](NC(=O)OC)C(C)C)nc5c4)N3c3cc(F)c(N4CCCCC4)c(F)c3)ccc2[nH]1)C(C)C [Example 3.8, methyl {(2S)-1-[(2S,4S)-2-{5-[(2R,5R)-1-[3,5-difluoro-4-(piperidin-1-yl)phenyl]-5-{2-[(2S,4S)-4-fluoro-1-{(2S)-2-[(methoxycarbonyl)amino]-3-methylbutanoyl}pyrrolidin-2-yl]-1H-benzimidazol-5-yl}pyrrolidin-2-yl]-1H-benzimidazol-2-yl}-4-fluoropyrrolidin-1-yl]-3-methyl-1-oxobutan-2-yl}carbamate]",< 100
14,"COC(=O)N[C@H](C(=O)N1C[C@@H](F)C[C@H]1c1nc2cc([C@H]3CC[C@H](c4ccc5[nH]c([C@@H]6C[C@H](F)CN6C(=O)[C@@H](NC(=O)OC)C(C)C)nc5c4)N3c3ccc(F)cc3)ccc2[nH]1)C(C)C [Example 3.9, methyl {(2S)-1-[(2S,4S)-4-fluoro-2-{5-[(2R,5R)-5-{2-[(2S,4S)-4-fluoro-1-{(2S)-2-[(methoxycarbonyl)amino]-3-methylbutanoyl}pyrrolidin-2-yl]-1H-benzimidazol-5-yl}-1-(4-fluorophenyl)pyrrolidin-2-yl]-1H-benzimidazol-2-yl}pyrrolidin-1-yl]-3-methyl-1-oxobutan-2-yl}carbamate]",100 to 1000
15,"COC(=O)N[C@H](C(=O)N1C[C@@H](OC)C[C@H]1c1nc2cc([C@H]3CC[C@H](c4ccc5[nH]c([C@@H]6C[C@H](OC)CN6C(=O)[C@@H](NC(=O)OC)C(C)C)nc5c4)N3c3ccc(F)cc3)ccc2[nH]1)C(C)C [Example 3.10, methyl {(2S)-1-[(2S,4S)-2-{5-[(2R,5R)-1-(4-fluorophenyl)-5-{2-[(2S,4S)-4-methoxy-1-{(2S)-2-[(methoxycarbonyl)amino]-3-methylbutanoyl}pyrrolidin-2-yl]-1H-benzimidazol-5-yl}pyrrolidin-2-yl]-1H-benzimidazol-2-yl}-4-methoxypyrrolidin-1-yl]-3-methyl-1-oxobutan-2-yl}carbamate]",100 to 1000
